Values quoted from earlier work, collected in patent US20050244368A1, “Pre-endoscopic use of polyethylene glycol compositions” (priority 2004, published 2005).

Details: % of adult patients (Zwas et al., 1996)

Structure (SMILES): O=P(O)(O)O [sodium phosphate]
- colonic mucosal changes mimicking inflammatory bowel disease: up to 24%
